Source: PubChem BioAssay AID328 (DTP/NCI, 2004)
Several values for one entry are separate records, joined by “and”; a condition that tells them apart may be missing. Equal values may be shown once. Toxic doses and inconclusive results are not listed.

Tested on: BDF1 mice, P388 leukemia ip, median survival T/C
Assay: NCI In Vivo Anticancer Drug Screen. Data for tumor model P388 Leukemia (intraperitoneal) in B6D2F1 (BDF1) mice
Details: endpoint: median survival time, higher = longer survival
How it was run: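 Survival ratio, drug arm over vehicle arm, in mice with a transplanted tumour.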

[1] = dose: 100.0 mg/kg/injection, schedule: Q01DX009 (ip), vehicle: Klucel (hydroxypropylcellulose) (HPC)
[2] = dose: 200.0 mg/kg/injection, schedule: Q01DX009 (ip), vehicle: Klucel (hydroxypropylcellulose) (HPC)
[3] = dose: 100.0 mg/kg/injection, schedule: Q04DX003 (ip), vehicle: saline with Tween-80
[4] = dose: 200.0 mg/kg/injection, schedule: Q04DX003 (ip), vehicle: saline with Tween-80
[5] = dose: 400.0 mg/kg/injection, schedule: Q04DX003 (ip), vehicle: saline with Tween-80
[6] = dose: 100.0 mg/kg/injection, schedule: Q01DX001 (ip), vehicle: saline with Tween-80
[7] = dose: 200.0 mg/kg/injection, schedule: Q01DX001 (ip), vehicle: saline with Tween-80
[8] = dose: 400.0 mg/kg/injection, schedule: Q01DX001 (ip), vehicle: saline with Tween-80
[9] = dose: 50.0 mg/kg/injection, schedule: Q01DX009 (ip), vehicle: saline
[10] = dose: 50.0 mg/kg/injection, schedule: Q01DX009 (ip), vehicle: saline with Tween-80
[11] = dose: 100.0 mg/kg/injection, schedule: Q01DX009 (ip), vehicle: saline with Tween-80
[12] = dose: 200.0 mg/kg/injection, schedule: Q01DX009 (ip), vehicle: saline with Tween-80
[13] = dose: 100.0 mg/kg/injection, schedule: Q04DX003 (ip), vehicle: other
[14] = dose: 200.0 mg/kg/injection, schedule: Q04DX003 (ip), vehicle: other
[15] = dose: 100.0 mg/kg/injection, schedule: Q04DX003 (ip), vehicle: saline
[16] = dose: 200.0 mg/kg/injection, schedule: Q04DX003 (ip), vehicle: saline
[17] = dose: 400.0 mg/kg/injection, schedule: Q01DX009 (ip), vehicle: saline with Tween-80
[18] = dose: 12.5 mg/kg/injection, schedule: Q01DX009 (ip), vehicle: saline with Tween-80
[19] = dose: 25.0 mg/kg/injection, schedule: Q01DX009 (ip), vehicle: saline with Tween-80
[20] = dose: 50.0 mg/kg/injection, schedule: Q04DX003 (ip), vehicle: saline with Tween-80

## CC[C@@]1(O)C(=O)OCc2c1cc1n(c2=O)Cc2cc3ccccc3nc2-1
dose: 0.8 mg/kg/injection, schedule: Q01DX009 (ip), vehicle: saline with Tween-80
  T/C: 170 % of control
dose: 1.5 mg/kg/injection, schedule: Q01DX009 (ip), vehicle: saline with Tween-80
  T/C: 195 % of control
dose: 2.5 mg/kg/injection, schedule: Q04DX003 (ip), vehicle: saline with Tween-80
  T/C: 161 % of control
dose: 3.0 mg/kg/injection, schedule: Q01DX009 (ip), vehicle: saline with Tween-80
  T/C: 183 % of control
dose: 3.75 mg/kg/injection, schedule: Q04DX003 (ip), vehicle: saline with Tween-80
  T/C: 176 % of control
dose: 4.0 mg/kg/injection, schedule: Q04DX003 (ip), vehicle: saline with Tween-80
  T/C: 200 % of control
dose: 6.0 mg/kg/injection, schedule: Q04DX003 (ip), vehicle: saline with Tween-80
  T/C: 233 % of control
dose: 9.0 mg/kg/injection, schedule: Q04DX003 (ip), vehicle: saline with Tween-80
  T/C: 250 % of control

## O=C1COCC(=O)C1
dose: 100.0 mg/kg/injection, schedule: Q01DX001 (ip), vehicle: saline
  T/C: 96 % of control
dose: 200.0 mg/kg/injection, schedule: Q01DX001 (ip), vehicle: saline
  T/C: 107 % of control
dose: 400.0 mg/kg/injection, schedule: Q01DX001 (ip), vehicle: saline
  T/C: 100 % of control

## COc1cc2c(cc1OC)-c1ccc3cc4c(cc3c1N(C)C2)OCO4
dose: 10.0 mg/kg/injection, schedule: Q01DX009 (ip), vehicle: other
  T/C: 123 % of control
dose: 40.0 mg/kg/injection, schedule: Q01DX009 (ip), vehicle: other
  T/C: 155 % of control

## CCCCCCCNC(C)(C)C(SS)c1ccc(Cl)cc1 (stereo not given)
dose: 100.0 mg/kg/injection, schedule: Q04DX003 (sc), vehicle: olive oil, sesame oil, peanut oil
  T/C: 100 % of control
dose: 200.0 mg/kg/injection, schedule: Q04DX003 (sc), vehicle: olive oil, sesame oil, peanut oil
  T/C: 109 % of control
dose: 400.0 mg/kg/injection, schedule: Q04DX003 (sc), vehicle: olive oil, sesame oil, peanut oil
  T/C: 100 % of control

## C=CC(C)(C)C12CC3C(=O)N/C(=C\c4cnc[nH]4)C(=O)N3C1Nc1ccccc12 (stereo not given)
dose: 50.0 mg/kg/injection, schedule: Q01DX009 (ip), vehicle: Klucel (hydroxypropylcellulose) (HPC)
  T/C: 94 % of control
[1]
  T/C: 94 % of control
[2]
  T/C: 92 % of control

## CC(=O)c1c(C)oc(C)c1C(C)=O
[3]
  T/C: 103 % of control
[4]
  T/C: 111 % of control
[5]
  T/C: 96 % of control

## CCCCCCCCCCCC(=O)Nc1ccc(C(=O)OCC)cc1
[6]
  T/C: 91 % of control
[7]
  T/C: 87 % of control
[8]
  T/C: 91 % of control

## O=C(COc1ccc(Cl)cc1Cl)Nc1ccc(F)cc1
[3]
  T/C: 95 % of control
[4]
  T/C: 100 % of control
[5]
  T/C: 90 % of control

## CCCCCCCCCC[N+]1([O-])CCCCC1
dose: 12.5 mg/kg/injection, schedule: Q01DX009 (ip), vehicle: saline
  T/C: 98 % of control
dose: 25.0 mg/kg/injection, schedule: Q01DX009 (ip), vehicle: saline
  T/C: 91 % of control
[9]
  T/C: 94 % of control

## CC(=O)c1ccccc1[N+](=O)[O-]
[10]
  T/C: 95 % of control
[11]
  T/C: 100 % of control
[3]
  T/C: 95 % of control
[12]
  T/C: 86 % of control
[4]
  T/C: 90 % of control
[5]
  T/C: 100 % of control

## CCN(CC)CC(=O)Nc1ccc(Cl)cc1Cc1ccccc1
[10]
  T/C: 110 % of control
[11]
  T/C: 106 % of control
[12]
  T/C: 105 % of control

## CCOC(=O)CCc1nc(C(=O)OCC)c(C)c2nnnn12
[3]
  T/C: 99 % of control
[4]
  T/C: 108 % of control
[5]
  T/C: 95 % of control

## COc1cc(Nc2nc(N)ncc2N)cc(OC)c1OC
[6]
  T/C: 91 % of control
[7]
  T/C: 91 % of control
[8]
  T/C: 100 % of control

## COC(=O)c1ccc(N)c(C(Sc2ccccc2)c2ccccc2)c1 (stereo not given)
dose: 50.0 mg/kg/injection, schedule: Q04DX002 (ip), vehicle: saline with Tween-80
  T/C: 98 % of control
dose: 100.0 mg/kg/injection, schedule: Q04DX002 (ip), vehicle: saline with Tween-80
  T/C: 90 % of control
dose: 200.0 mg/kg/injection, schedule: Q04DX002 (ip), vehicle: saline with Tween-80
  T/C: 99 % of control

## OC(CC(O)(C(F)(F)F)C(F)(F)F)c1cccc(C(F)(F)F)c1 (stereo not given)
[13]
  T/C: 100 % of control
[14]
  T/C: 104 % of control
dose: 400.0 mg/kg/injection, schedule: Q04DX003 (ip), vehicle: other
  T/C: 95 % of control

## CCCCCCOC(=O)/C=C(/C)OCCCCCC
[10]
  T/C: 100 % of control
dose: 87.5 mg/kg/injection, schedule: Q01DX009 (ip), vehicle: saline with Tween-80
  T/C: 113 % of control
[11]
  T/C: 105 % of control
[15]
  T/C: 108 % of control
dose: 175.0 mg/kg/injection, schedule: Q01DX009 (ip), vehicle: saline with Tween-80
  T/C: 100 % of control
[16]
  T/C: 104 % of control
dose: 265.0 mg/kg/injection, schedule: Q01DX009 (ip), vehicle: saline with Tween-80
  T/C: 113 % of control
[17]
  T/C: 118 % of control
dose: 400.0 mg/kg/injection, schedule: Q04DX003 (ip), vehicle: saline
  T/C: 108 % of control

## Cc1cc(Cc2cc(C)c(C)c(C)c2C)c(C)c(C)c1C
[18]
  T/C: 93 % of control
[19]
  T/C: 100 % of control
[10]
  T/C: 98 % of control
[11]
  T/C: 97 % of control

## O=C1CC(N2C(=O)c3ccccc3C2=O)C(=O)N1 (stereo not given)
dose: 25.0 mg/kg/injection, schedule: Q04DX003 (ip), vehicle: saline with Tween-80
  T/C: 101 % of control
[20]
  T/C: 103 % of control
[3]
  T/C: 103 % of control
[4]
  T/C: 99 % of control

## CCOc1ccc(NC(=O)OCCN2CCN(CCc3ccccc3)C(C)C2)cc1 (stereo not given)
[10]
  T/C: 94 % of control
[11]
  T/C: 98 % of control

## COC1CC(C)(O)C(OC2CCC(OC(=O)C(C)C(O)c3ccc4c(c3)C(=O)C=C(C)C4=O)C(C)O2)C(C)O1 (stereo not given)
dose: 1.25 mg/kg/injection, schedule: Q01DX009 (ip), vehicle: saline
  T/C: 100 % of control and 103 % of control
dose: 2.5 mg/kg/injection, schedule: Q01DX009 (ip), vehicle: saline
  T/C: 94 % of control and 100 % of control
dose: 5.0 mg/kg/injection, schedule: Q01DX009 (ip), vehicle: saline
  T/C: 99 % of control
dose: 10.0 mg/kg/injection, schedule: Q01DX009 (ip), vehicle: saline
  T/C: 99 % of control

## O=C(O)c1ccccc1C(=O)OC1=CS(=O)(=O)CC1
dose: 50.0 mg/kg/injection, schedule: Q01DX001 (ip), vehicle: saline with Tween-80
  T/C: 93 % of control
[6]
  T/C: 96 % of control
[7]
  T/C: 97 % of control
[8]
  T/C: 110 % of control

## CC(=O)C1CCC2C3CCC4=CC(=O)CC4(C)C3CCC12C (stereo not given)
[10]
  T/C: 95 % of control
[20]
  T/C: 104 % of control
[11]
  T/C: 90 % of control and 100 % of control
[3]
  T/C: 95 % of control and 104 % of control
[12]
  T/C: 90 % of control and 95 % of control
[4]
  T/C: 90 % of control and 95 % of control
[17]
  T/C: 86 % of control
[5]
  T/C: 90 % of control

## Cc1ccc(S(=O)(=O)OCCC2CCCCC2COS(=O)(=O)c2ccc(C)cc2)cc1 (stereo not given)
[1]
  T/C: 105 % of control
[2]
  T/C: 100 % of control
dose: 400.0 mg/kg/injection, schedule: Q01DX009 (ip), vehicle: Klucel (hydroxypropylcellulose) (HPC)
  T/C: 110 % of control

## C#CC(C)OCC1CO1 (stereo not given)
[9]
  T/C: 91 % of control
dose: 50.0 mg/kg/injection, schedule: Q04DX003 (ip), vehicle: saline
  T/C: 108 % of control
dose: 100.0 mg/kg/injection, schedule: Q01DX009 (ip), vehicle: saline
  T/C: 95 % of control
[15]
  T/C: 91 % of control
[16]
  T/C: 108 % of control

## CCCCCCC#CC(=O)OC
[19]
  T/C: 106 % of control
[10]
  T/C: 106 % of control
[11]
  T/C: 109 % of control
[12]
  T/C: 106 % of control

## CCCCNC(C)(C)C(SS)c1cccs1 (stereo not given)
[13]
  T/C: 100 % of control
[14]
  T/C: 100 % of control

## CC1CCC(C)C1NC1=NCCO1 (stereo not given)
dose: 6.25 mg/kg/injection, schedule: Q01DX009 (ip), vehicle: saline with Tween-80
  T/C: 109 % of control
[18]
  T/C: 100 % of control
[19]
  T/C: 104 % of control

## NNC(=O)NC(=O)NN
[9]
  T/C: 104 % of control
[15]
  T/C: 113 % of control
[16]
  T/C: 113 % of control

## CCOC(=O)NCCc1ccc(OC)c(OC)c1
[19]
  T/C: 109 % of control
[10]
  T/C: 124 % of control
[11]
  T/C: 89 % of control
[12]
  T/C: 106 % of control
[17]
  T/C: 107 % of control

## CCC1(C)N=C(C)C(C)S1 (stereo not given)
[3]
  T/C: 100 % of control
[4]
  T/C: 100 % of control
[5]
  T/C: 109 % of control
